According to patent publication US12390435B2, “Electrophiles and electrophile pro-drugs as RAD51 inhibitors” (University of Pittsburgh—Of the Commonwealth System of …, priority 2018, dated 2025):

Assays:
MCF-10A cells [1] = test: GSH and GSSG LC-MS/MS; assay type: cell-based; details: 5 μM, 0 to 12 hr
Method: (§1) MCF-10A, MDA-MB-231, and MDA-MB-468 cells were seeded in 24-well plates at a density of 3×10^5 cells/well. […] At each time point, cell media was aspirated and washed 2 times with sterile PBS. Cells were then incubated with PBS containing 25 mM N-ethylmaleimide (NEM) for 15 min at 37° C. Derivatizing solution (50 μL of 15% MeOH, 40 mM HEPES, 50 mM NaCl, 1 mM EDTA, 2 μM [^13C2^15N]-GSH, 2 μM [^13C4^15N2]-GSSG, and 25 mM NEM) was added to each well and incubated for 15 min at room temperature. Next, 50 μL, of 10% (w/v) sulfosalicylic acid solution was immediately added to each well to stabilize GSH and GSSG. Supernatant was collected by centrifugation at 15,000 RPM for 10 min at 4° C. Samples were diluted 1:5 in 5% sulfosalicylic acid and 20 μL, was injected for HPLC-MS/MS analysis. Cell numbers at time 0 hr were quantitated by Hoechst 33258 DNA stain assay and used to normalized GSH or GSSG levels expressed as nmol/cells (×10^6).
(§2) Samples were applied to the column at 30% B and eluted with a linear increase in solvent B (30-100% in 9.7 min). The column was washed at 100% B for 3 min before returning to initial conditions for equilibration (2 min). […] Sample [GSH] and [GSSG] were determined from analyte:I.S. area ratios, and intracellular GSH and GSSG were normalized to cell number (10^6), with results expressed as nmol GSH or GSSG per 10^6 cells.

[2] = system: MDA-MB-231 and MDA-MB-468 cells; test: GSH and GSSG LC-MS/MS; assay type: cell-based; details: 5 μM, 0 to 12 hr
Method: as §1, §2

MCF-10A cells [3] = test: RAD51 foci and γH2AX immunofluorescence after 5 Gy IR; assay type: cell-based
Method: FIGS. 1A-1K. […] FIG. 1A. […] FIG. 1C. […] EC50 values indicate average+SEM, n=3. FIGS. 1D-1F. […] FIG. 1G. […] FIGS. 1H-1I. […] Merged samples include DAPI stained nuclei (blue). […] The average percentages of cells with 5 or more foci from confocal z-stacked images are indicated from 0 or 5 Gy samples+SEM. FIG. 1J. […] Rad51 foci were counted and γH2AX intensities were assessed by ImageJ in 5Gy irradiated cells (histograms), that were analyzed by immunofluorescence (IF). FIG. 1K, upper part. […] FIG. 1K, lower part. Combination index (CI) was calculated by the Chou-Talalay method. CI<1 is synergistic. Data represent the mean from three independent experiments.
To analyze RAD51 foci formation, 10,000 cells were plated to CultureWell 16-well chambered cover glass (MIDSCI) coated with poly-L-lysine (Sigma) and incubated overnight in 5% FBS media. […] Cells were fixed with 10% formalin for 20 min at 4° C. and immunostained with RAD51 (Santa Cruz) or γH2AX (EMD Biosciences) antibodies. Z-stack images were acquired using a Nikon AIR confocal microscope with 60× oil objective and acquisition performed using NIS elements software. Quantification of z-stacks and foci were completed using ImageJ software.

RelA = target: T1, RelA (Homo sapiens, UniProt Q04206); test: Biotinylated NO2-FA protein alkylation pull-down and proteomics; assay type: binding; details: recombinant RelA protein
T1 construct: endogenous in cells; host or cells: MDA-MB-231, MDA-MB-468
Method: After 2 hr cells were harvested in lysis buffer containing 1% Triton X, 10% glycerol, 150 mM NaCl, 10 mM HEPES, 1 mM EDTA, 1 mM EGTA, and supplemented with a mixture of protease and phosphatase inhibitors (Roche Applied Science). Total cell lysates (0.5-1 mg) were mixed and incubated with streptavidin agarose beads (Sigma-Aldrich) at 4° C., overnight. Beads were washed three times using lysis buffer. After SDS-PAGE, immunoblotting was performed using anti-RelA mouse monoclonal antibody (Santa Cruz Biotechnology) or anti-IKKβ rabbit polyclonal antibody (Cell Signaling). Proteomics analysis for the alkylation of RelA by NO2-OA was also conducted using recombinant RelA protein and LC-MS/MS analysis.

T1 sequence (Q04206 whole entry): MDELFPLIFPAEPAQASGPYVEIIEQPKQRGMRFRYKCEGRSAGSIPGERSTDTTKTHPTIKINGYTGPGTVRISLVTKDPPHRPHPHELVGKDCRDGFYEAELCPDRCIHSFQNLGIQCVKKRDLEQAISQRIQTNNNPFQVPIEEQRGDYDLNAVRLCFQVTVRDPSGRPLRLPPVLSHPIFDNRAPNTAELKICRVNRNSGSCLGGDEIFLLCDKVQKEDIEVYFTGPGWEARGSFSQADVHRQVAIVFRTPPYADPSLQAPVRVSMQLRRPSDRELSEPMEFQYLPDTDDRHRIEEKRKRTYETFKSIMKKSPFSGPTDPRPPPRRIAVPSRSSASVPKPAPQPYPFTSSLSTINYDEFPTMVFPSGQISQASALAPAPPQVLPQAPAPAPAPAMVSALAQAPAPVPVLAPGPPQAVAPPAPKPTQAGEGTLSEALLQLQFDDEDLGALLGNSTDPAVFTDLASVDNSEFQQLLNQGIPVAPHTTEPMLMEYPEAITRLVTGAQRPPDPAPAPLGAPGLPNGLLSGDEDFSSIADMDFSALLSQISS

Question: For `CCCCCCCCC(=CCCCCCCCC(=O)O)[N+](=O)[O-]` [NO2-OA, 10-nitro-octadec-9-enoic acid], which “GSH:GSSG ratio after treatment” value (MCF-10A cells [1]) is on record?
Answer: The value was “maintained the GSH:GSSG ratio over the first 6 hr”.

Question: And the “GSH:GSSG ratio after treatment” value [2]?
Answer: The value was “rapidly decreased”.

Question: What about the “RAD51 foci / γH2AX in irradiated benign cells” value (MCF-10A cells [3]) of the same molecule?
Answer: The value was “no effect”.

Question: And the “RelA Cys105 alkylation (LC-MS/MS proteomics)” value (RelA)?
Answer: Its value is “alkylated”.
